In patent publication US20250368932A1, “SYSTEM FOR MIMICKING CELLULAR MICROENVIRONMENT AND METHOD FOR EVALUATING CELL DEVELOPMENT OR DRUG THERAPY EFFECTIVENESS USING THE SAME” (Anivance AI Corporation, priority 2024, published 2025):

Columns and labels:
[1] = test system: Non-Small Cell Lung Cancer Tumor Spheroids (co-cultured cell spheroids, A549 / HFL-1); assay: Morphology and area of tumor spheroids after drug administration on the chip (bright-field, quantified); assay type: cell-based, human
Description: In some embodiments, the A549 cell line of the present disclosure is purchased from ATCC, and is commonly used for developing lung cancer drugs and drug delivery experiments. The A549 cells are cultured in F12K cell culture medium (10-025, Corning) supplemented with 10% fetal bovine serum (FBS) (35-076-EV, Corning). The cells are taken out from the liquid nitrogen tank and thawed in a […] water bath. The cell suspension in the cryovial is extracted and mixed with 1 mL of cell culture medium, followed by adding it to a T-75 cell culture flask containing 9 mL of cell culture medium for uniform mixing and culture. When cell confluence reaches 80%, cell passaging is carried out. Cells are first rinsed with DPBS and then detached from the T-75 cell culture flask using trypsin. The detached A549 cells are transferred to a 15 mL centrifuge tube, and centrifuged at 1000 rpm for 5 minutes at 24° C. After centrifugation, the cells are concentrated at the bottom of the centrifuge tube, and the supernatant is aspirated. Subsequently, 500 μL of cell culture medium is added, mixed thoroughly, and the cells are resuspended. A 20 μL cell suspension is then withdrawn, and the cell count is determined using an automatic cell counter, which is used to estimate the total number of cells in the centrifuge tube. The estimated number of cells is then seeded back into the T-75 cell culture flask.
In some embodiments, the HFL-1 cell line of the present disclosure is purchased from BCRC, and is commonly used for co-culture and cytotoxicity studies. The cells are cultured in F12K cell culture medium (10-025, Corning) supplemented with 10% fetal bovine serum (FBS) (35-076-EV, Corning). The cells are removed from the liquid nitrogen tank and thawed in a 37° C. water bath. […] A 20 μL cell suspension is then withdrawn, and the cell count is determined using an automatic cell counter to estimate the total number of cells in the centrifuge tube. […]

[2] = test system: cell spheroids (A549); assay: Effect of TGF-β on spreading and metastasis of cell spheroids cultured on the hydrogel; assay type: cell-based, human
Description: In some embodiments, the present disclosure uses Ultra-Low Attachment (ULA) 96-well plates (7007, Corning) to conduct in vitro 3D cell spheroid cultures. The ULA 96-well plates feature an extremely low attachment surface that minimizes cell adhesion and protein absorption, facilitating the formation of cell spheroids. In each well of the ULA 96-well plate, 1000 to 8000 cells (with each well containing 200 μL of cell culture medium) are added, and the morphological changes of the cells are observed. After four days of cell seeding, compact cell spheroids are formed.
In some embodiments, before seeding cell spheroids, the chip is irradiated with ultraviolet (UV) light for 30 minutes and washed with filtered 75% alcohol, 95% alcohol, and deionized water, respectively. […]
In some embodiments, Image-J software is used to perform quantitative analysis of the cell spheroid spreading area. […] The spreading area of cell spheroids is then quantitatively analyzed.
After culturing on the hydrogel for 48 hours, the development of the cell spheroids is observed using a fluorescence microscope. […] The original cell spheroids display red fluorescence indicating the expression of vimentin. […] “Top view” and “side view” refer to the respective perspectives, and the green fluorescence labels F-actin.

COc1cccc2c1C(=O)c1c(O)c3c(c(O)c1C2=O)C[C@@](O)(C(=O)CO)C[C@@H]3O[C@H]1C[C@H](N)[C@H](O)[C@H](C)O1 [Dox]
shape of cell spheroids after drug treatment ([1]; Dox 0, 40, 90 and 320 μM, 48 hours, on chip, FIG. 10A/10B): maintain their original shape
area of tumor spheroids (quantitative analysis) ([1]; Dox 0, 40, 90 and 320 μM, FIG. 10C/10D): no significant decrease
therapeutic effect on static tumor spheroids (summary) ([1]; static tumor spheroids, single drug): no therapeutic effect

transforming growth factor-beta [TGF-β]
outward expansion and migration of cells in the cell spheroids (spreading area) ([2]; 20 ng/ml TGF-β, 48 hours on hydrogel, versus untreated, FIG. 3B/3C): increased outward expansion and migration range
structure of cell spheroids ([2]; prolonged TGF-β treatment, FIG. 3D): disaggregate and expand outward
